Measurements from US20230041738A1, “1H-PYRAZOLO[4,3-d]PYRIMIDINE COMPOUNDS AS TOLL-LIKE RECEPTOR 7 (TLR7) AGONISTS” (BRISTOL-MYERS SQUIBB COMPANY, priority 2020, published 2023).
pEC50: −log10 of the molar value.

Target: T1, human TLR7 (Homo sapiens, UniProt Q9NYK1)
T1 construct: host or cells: HEK-Blue TLR7 cells (engineered human embryonic kidney cells)
T1 sequence (Q9NYK1 27-1049): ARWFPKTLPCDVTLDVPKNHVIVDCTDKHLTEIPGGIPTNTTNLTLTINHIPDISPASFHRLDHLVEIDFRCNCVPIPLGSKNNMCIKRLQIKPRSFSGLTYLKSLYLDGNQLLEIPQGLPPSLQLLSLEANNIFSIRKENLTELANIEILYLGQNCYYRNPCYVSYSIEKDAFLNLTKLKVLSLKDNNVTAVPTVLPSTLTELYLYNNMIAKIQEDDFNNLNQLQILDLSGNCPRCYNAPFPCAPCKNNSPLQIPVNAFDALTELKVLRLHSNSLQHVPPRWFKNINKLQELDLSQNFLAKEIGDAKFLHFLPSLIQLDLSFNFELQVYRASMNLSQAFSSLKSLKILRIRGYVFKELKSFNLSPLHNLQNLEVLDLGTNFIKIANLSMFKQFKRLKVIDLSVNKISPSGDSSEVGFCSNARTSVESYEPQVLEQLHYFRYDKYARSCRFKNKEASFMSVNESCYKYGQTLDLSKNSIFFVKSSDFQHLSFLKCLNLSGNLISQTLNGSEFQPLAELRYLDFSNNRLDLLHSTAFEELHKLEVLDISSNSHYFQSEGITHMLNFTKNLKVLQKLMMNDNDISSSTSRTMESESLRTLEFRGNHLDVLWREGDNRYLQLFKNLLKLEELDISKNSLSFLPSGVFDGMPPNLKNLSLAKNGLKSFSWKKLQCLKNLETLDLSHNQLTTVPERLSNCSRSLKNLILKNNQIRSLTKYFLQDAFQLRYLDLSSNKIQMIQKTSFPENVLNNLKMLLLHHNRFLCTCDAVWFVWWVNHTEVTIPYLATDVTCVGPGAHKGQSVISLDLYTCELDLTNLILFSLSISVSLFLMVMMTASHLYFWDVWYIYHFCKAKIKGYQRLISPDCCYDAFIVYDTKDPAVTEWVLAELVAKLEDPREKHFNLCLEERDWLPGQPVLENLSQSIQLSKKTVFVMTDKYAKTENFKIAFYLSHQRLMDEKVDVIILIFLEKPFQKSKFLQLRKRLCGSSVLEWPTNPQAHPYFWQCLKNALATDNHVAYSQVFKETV
Assay: Human TLR7 agonist activity assay (hTLR7 reporter, HEK-Blue TLR7 cells, SEAP)
Assay type: cell-based
Conditions: HEK-Blue TLR7 cells with SEAP reporter, 18 h treatment; average where assay performed multiple times
Experimental: This procedure describes a method for assaying human TLR7 (hTLR7) agonist activity of the compounds disclosed in this specification.
HEK-Blue™ TLR7 cells were added to each well of a 384-well tissue-culture plate (15,000 cells per well) and incubated 16-18 h at 37° C., 5% CO2. Compounds (100 nl) were dispensed into wells containing the HEK-Blue™ TLR cells and the treated cells were incubated at 37° C., 5% CO2. After 18 h treatment ten microliters of freshly-prepared Quanti-Blue™ reagent (Invivogen) was added to each well, incubated for 30 min (37° C., 5% CO2) and SEAP levels measured using an Envision plate reader (OD=620 nm). The half maximal effective concentration values (EC50; compound concentration which induced a response halfway between the assay baseline and maximum) were calculated.

Row | Structure (SMILES) | pEC50
1 | CCC[C@@H](CCO)Nc1nc(N)nc2cnn(Cc3ccc(CN4C[C@@H]5C[C@H]4CN5C(C)=O)cc3OC)c12 [Compound 101, 1-[(1S,4S)-5-({4-[(5-amino-7-{[(3S)-1-hydroxyhexan-3-yl]amino}-1H-pyrazolo[4,3-d]pyrimidin-1-yl)methyl]-3-methoxypheyl}-methyl)-2,5-diazabicyclo[2.2.1]-heptan-2-yl]ethan-1-one] | 7.54
2 | CCCCNc1nc(N)nc2cnn(Cc3ccc(CN4C5CNCC4C5)cc3OC)c12 [Compound 102, N7-butyl-1-{[4-({3,6-diazabicyclo-[3.1.1]heptan-6-yl}methyl)-2-methoxyphenyl]methyl}-1H-pyrazolo-[4,3-d]pyrimidine-5,7-diamine] | 7.05
3 | CCCCNc1nc(N)nc2cnn(Cc3ccc(CN4C[C@H]5CN(C)C[C@H]5C4)cc3OC)c12 [Compound 103, 1-[(4-{[(3aR,6aS)-5-methyl-octa-hydropyrrolo[3,4-c]pyrrol-2-yl]methyl}-2-methoxyphenyl)methyl]-N7-butyl-1H-pyrazolo[4,3-d]pyrimidine-5,7-diamine] | 7.56
4 | CCCCNc1nc(N)nc2cnn(Cc3ccc(CN4C[C@H]5CCS(=O)(=O)[C@H]5C4)cc3OC)c12 [Compound 104, (3aR,6aR)-5-[(4-{[5-amino-7-(butyl-amino)-1H-pyrazolo[4,3-d]pyrimidin-1-yl]methyl}-3-methoxyphenyl)methyl]-hexahydro-2H-1λ6-thieno[2,3-c] pyrrole-1,1-dione] | 6.71
5 | CCC[C@@H](CCO)Nc1nc(N)nc2cnn(Cc3ccc(CNC4[C@H]5COC[C@@H]45)cc3OC)c12 (stereo partly drawn) [Compound 107, (3S)-3-[(5-amino-1-{[2-methoxy-4-({[(1R,5S,6S)-3-oxabicyclo[3.1.0]-hexan-6-yl]amino}methyl)phenyl]-methyl}-1H-pyrazolo[4,3-d]pyrimidin-7-yl)amino]hexan-1-ol] | 8.28
6 | CCC[C@@H](CCO)Nc1nc(N)nc2cnn(Cc3ccc(CN[C@H]4C[C@H]5COC[C@H]54)cc3OC)c12 [Compound 108, (3S)-3-[(5-amino-1-{[2-methoxy-4-({[(1R,5R,6S)-3-oxabicyclo-[3.2.0]heptan-6-yl]amino}methyl)phenyl]methyl}-1H-pyrazolo-[4,3-d]pyrimidin-7-yl)amino]hexan-1-ol] | 8.31
7 | CCC[C@@H](CCO)Nc1nc(N)nc2cnn(Cc3ccc(CN4C[C@@H]5OCC[C@@H]54)cc3OC)c12 [Compound 109, (3S)-3-({5-amino-1-[(2-methoxy-4-{[(1S,5S)-2-oxa-6-azabicyclo-[3.2.0]heptan-6-yl]methyl}phenyl)-methyl]-1H-pyrazolo[4,3-d]pyrimidin-7-yl}amino)hexan-1-ol] | 8.66
8 | CCC[C@@H](CCO)Nc1nc(N)nc2cnn(Cc3ccc(C(=O)N4C[C@H]5CN(C)C[C@H]5C4)cc3OC(F)F)c12 [Compound 124, (3S)-3-{[1-({4-[(3aR,6aS)-5-methyl-octahydropyrrolo[3,4-c]pyrrole-2-carbonyl]-2-(difluoromethoxy)-phenyl}methyl)-5-amino-1H-pyra-zolo[4,3-d]pyrimidin-7-yl]amino}-hexan-1-ol] | 7.09
9 | CCC[C@@H](CCO)Nc1nc(N)nc2cnn(Cc3ccc(C(=O)N4C[C@H]5C[C@@H]4CN5C)cc3OC(F)F)c12 [Compound 125, (3S)-3-[(5-amino-1-{[2-(difluoro-methoxy)-4-[(1R,4R)-5-methyl-2,5-diazabicyclo[2.2.1]heptane-2-carbonyl]phenyl]methyl}-1H-pyrazolo[4,3-d]pyrimidin-7-yl)amino]hexan-1-ol] | 6.52
10 | COc1cc(CNC23CC(C2)C3)ccc1Cn1ncc2nc(N)nc(NCc3cc(C)on3)c21 [Compound 126, 1-({4-[({bicyclo[1.1.1]pentan-1-yl}amino)methyl]-2-methoxy-phenyl}methyl)-N7-[(5-methyl-1,2-oxazol-3-yl)methyl]-1H-pyra-zolo[4,3-d]pyrimidine-5,7-diamine] | 6.54
